Measurements reported in ChEMBL document CHEMBL5528001, “Synthetic product-based approach toward potential antileishmanial drug development” (Eur J Med Chem, 2024).

What was measured:
[1] = system: Leishmania infantum; assay: Antileishmanial activity against Leishmania infantum amastigotes infected in human THP-1 cells assessed as reduction in parasite growth; format: functional, organism-based
[2] = Cytotoxicity against human WI-38 cells assessed as reduction in cell viability incubated for 48 hrs by MTT assay; format: toxicity, cell-based
[3] = system: Leishmania infantum; assay: Antileishmanial activity against Leishmania infantum MHOM/FR/2008/LEM5700 infected in BALB/c mouse assessed as reduction of parasite burden in liver at 10 mg/kg, po administered for 5 days relative to control; format: functional; set-up: scale not given: the % may be the effect or the level left; conditions: time 5 day
[4] = system: Leishmania infantum; assay: Antileishmanial activity against Leishmania infantum LEM 3049 isolate promastigote assessed as reduction in parasite growth after 72 hrs by MTT assay; format: functional, organism-based; conditions: LEM 3049, 72 h
[5] = system: Leishmania donovani; assay: Antileishmanial activity against Leishmania donovani 9515 amastigotes assessed as inhibition of parasite growth incubated for 48 hrs by resazurin dye based assay; format: functional, organism-based; conditions: Leishmania donovani, 9515, 48 h
[6] = system: Leishmania donovani; assay: Antileishmanial activity against Leishmania donovani amastigotes MHOM/SD/62/1S assessed as inhibition of cell growth measured after 48 hrs by resazurin dye based assay; format: functional, organism-based
[7] = system: Leishmania donovani; assay: Antileishmanial activity against Leishmania donovani promastigotes MHOM/SD/62/1S assessed as inhibition of cell growth measured after 48 hrs by resazurin dye based assay; format: functional, organism-based
[8] = system: Leishmania tropica; assay: Antileishmanial activity against Leishmania tropica MHOM/A7/1974/SAF-K27 assessed as reduction in parasite growth incubated for 48 hrs by Neubauer hemocytometer analysis; format: functional, organism-based; conditions: MHOM/A7/1974/SAF-K27, 48 h
[9] = Cytotoxicity against African green monkey Vero cells assessed as reduction in cell viability by MTT assay; format: toxicity, cell-based, Chlorocebus sabaeus
[10] = system: HepG2; assay: Cytotoxicity against human HepG2 cells assessed as growth inhibition of cells measured for 48 hrs by MTT assay; format: functional, cell-based; conditions: HepG2, 48 h
[11] = system: Leishmania infantum; assay: Antileishmanial activity against Leishmanial infantum amastigotes assessed as inhibition of parasite growth measured after 72 hrs by MTT assay; format: functional, organism-based
[12] = system: Leishmania infantum; assay: Antileishmanial activity against Leishmania infantum promastigote assessed as inhibition of parasite growth after 72 hrs by MTT assay; format: functional, organism-based
[13] = Selectivity index, ratio of CC50 for cytotoxicity against HEK293 cells to IC50 for antileishmanial activity against Leishmania major IR-173 promastigotes; format: toxicity, cell-based; conditions: human, read-out: Ratio CC50/IC50
[14] = system: Leishmania donovani; assay: Antileishmanial activity against Leishmania donovani MHOM/IN/95/9515 assessed as reduction in parasite growth measured for 72 hrs by resazurin dye based analysis; format: functional, organism-based; conditions: MHOM/IN/95/9515, 72 h
[15] = system: Leishmania major; assay: Antileishmanial activity against Leishmania major MHOM/IR/-173 assessed as reduction in parasite viability measured for 48 hrs by alamar-blue dye based analysis; format: functional, organism-based; conditions: MHOM/IR/-173, 48 h

COc1ccc(Br)cc1CN(C)C12CC3CC(CC(C3)C1)C2
IC50 [1]: 320 nM | CC50 at 48 h [2]: 63700 nM | Activity [3]: 59%

O=C(N/N=C1\C(=O)N(CC(O)COc2cc(=O)oc3ccccc23)c2ccccc21)c1ccncc1 (stereo not given)
IC50 [4]: 30 nM

O=C(N/N=C\c1ccc([N+](=O)[O-])o1)c1ccc(OS(=O)(=O)c2cccnc2)cc1
IC50 [5]: 90 nM | IC50 [6]: 90 nM | IC50 [7]: 90 nM | IC50 [8]: 40 nM | IC50 [9]: 3260 nM

O=C(CCCc1cc2ccccc2[nH]1)Nc1nc2ccccc2c2ccccc12
IC50 [10]: 10 nM | EC50 [11]: 8900 nM | EC50 [12]: 8530 nM

Cc1ccc(Cn2cc(COC3=CC(=O)c4ccccc4C3=O)nn2)cc1
selectivity ratio [13]: > 55 | IC50 [14]: 810 nM | IC50 [15]: 1480 nM
